From PubChem BioAssay AID1259408 (Genetic Toxicology Data Bank (GENE-TOX), 2018) come the findings set out here.

For this data set, the system named is GENE-TOX genotoxicity assays, various organisms and cells. Put plainly: GENE-TOX mutagenicity studies. The settings on record: for call: Assay Type: In vivo carcinogenicity studies, Assay Code: CCG+.
Where [1] appears, read: Species/Cell Type: Nonhuman, Evaluation Type: Evaluation A (Pre-1980).
The mark [2] stands for this setting: Species/Cell Type: Human lymphocytes, Assay Type: Sister-chromatid exchange (SCE) in vitro, Assay Code: SCL+D, Dose Response: With dose response, Evaluation Type: Evaluation B (Post-1980).
[3] abbreviates: Species/Cell Type: Human, Assay Type: Sister-chromatid exchange (SCE) in vitro, Assay Code: SC1+D, Dose Response: With dose response, Evaluation Type: Evaluation B (Post-1980).
The mark [4] stands for this setting: Species/Cell Type: Nonhuman, Assay Type: Sister-chromatid exchange (SCE) in vitro, Assay Code: SC2+, Evaluation Type: Evaluation B (Post-1980).
Setting [5] is: Species/Cell Type: Nonhuman, Assay Type: Sister-chromatid exchange (SCE) in vitro, Assay Code: SC2+D, Dose Response: With dose response, Evaluation Type: Evaluation B (Post-1980).
The mark [6] stands for this setting: Species/Cell Type: Salmonella typhimurium (one or more of the five standard strains: TA98, TA100, TA1535, TA1537, and TA1538), Assay Type: Histidine reverse gene mutation, Ames assay, Assay Code: SAL+, Evaluation Type: Evaluation A (Pre-1980).
Setting [7] is: Species/Cell Type: Human, Sex: Male, Assay Type: Sperm morphology, Assay Code: SPH+, Evaluation Type: Evaluation A (Pre-1980).
The mark [8] stands for this setting: Species/Cell Type: Mammalian polychromatic erythrocytes, Assay Type: Micronucleus test, chromosome aberrations, Assay Code: MNT-, Evaluation Type: Evaluation B (Post-1980).
The mark [9] stands for this setting: Species/Cell Type: Salmonella typhimurium (one or more of the five standard strains: TA98, TA100, TA1535, TA1537, and TA1538), Assay Type: Histidine reverse gene mutation, Ames assay, Assay Code: SAL+*, Activation: With metabolic activation, Evaluation Type: Evaluation A (Pre-1980).

Active and inactive are the calls of the source. How the calls were made is not given here.

For the molecule `CC1=C(/C=C/C(C)=C/C=C/C(C)=C/C(=O)O)C(C)(C)CCC1`, the mutagenic call was “active; positive” (Species/Cell Type: Human, Assay Type: Sister-chromatid exchange (SCE) in vitro, Assay Code: SC1+D, Dose Response: With dose response, Evaluation Type: Evaluation A (Pre-1980)) and “no conclusion” (Species/Cell Type: Nonhuman, Assay Type: Sister-chromatid exchange (SCE) in vitro, Assay Code: SC2T, Evaluation Type: Evaluation B (Post-1980)).
On to `CC(C)C(=O)Nc1ccc([N+](=O)[O-])c(C(F)(F)F)c1`, for which, under “Species/Cell Type: Rodents, Sex: Male, Assay Type: Dominant lethal test, Assay Code: DLT-, Evaluation Type: Evaluation A (Pre-1980)”, the mutagenic call was “inactive; negative”.
Turning to `CC(=O)Nc1ccc(N=Nc2cc(C)ccc2O)cc1`, under setting [1], the call is “active; positive”.
Take `[O]=[Cr](=[O])([OH])[O][Cr](=[O])(=[O])[OH]`: the mutagenic call (Species/Cell Type: Bacillus subtilis (H17 vs M45), Assay Type: Rec-assay, spot test, DNA effects (bacterial DNA repair), Assay Code: REW+, Evaluation Type: Evaluation A (Pre-1980)) was “active; positive”; the mutagenic call (Species/Cell Type: Chinese hamster ovary (CHO) cells, Assay Type: Forward gene mutation at the HPRT locus, Assay Code: CHO+, Evaluation Type: Evaluation B (Post-1980)) was “active; positive”; the mutagenic call under setting [2] is “active; positive”; the mutagenic call under setting [3] is “active; positive”; the mutagenic call (Species/Cell Type: Mammalian polychromatic erythrocytes, Assay Type: Micronucleus test, chromosome aberrations, Assay Code: MNT+, Evaluation Type: Evaluation B (Post-1980)) is “active; positive”; the mutagenic call (Species/Cell Type: Nonhuman, Assay Type: Chromosome aberrations in vitro, Assay Code: CY&+, Evaluation Type: Evaluation A (Pre-1980)) was “active; positive”. Also, the mutagenic call is, setting by setting: under setting [4], “active; positive”; under setting [5], “active; positive”; under setting [6], “active; positive”; (Species/Cell Type: Syrian hamster embryo (SHE) cells, Assay Type: Cell transformation, clonal assay, Assay Code: CTC+, Evaluation Type: Evaluation A (Pre-1980)) “active; positive”.
With `C#C[C@]1(O)CC[C@H]2[C@@H]3CCC4=CC(=O)CC[C@@H]4[C@H]3CC[C@@]21C`, under setting [7], the mutagenic call was “active; positive”. For the same molecule, the call under setting [1] was “active; positive”.
On to `O=c1[nH]c(=O)n([C@H]2C[C@H](O)[C@@H](CO)O2)cc1CO`, for which the mutagenic call runs as follows: under setting [2], “active; positive”; under setting [3], “active; positive”.
In the case of `CCCCCCC(=O)O[C@H]1CC[C@H]2[C@@H]3CCC4=CC(=O)CC[C@]4(C)[C@H]3CC[C@]12C`, the mutagenic call under setting [7] was “active; positive”. In addition, under setting [1], the call is “active; positive”.
Regarding `FC(F)(Cl)Br`, the mutagenic call under setting [8] is “inactive; negative”.
`COC(C)[C@](O)(C(=O)O)C(C)C` (stereo partly drawn): the mutagenic call (Species/Cell Type: Drosophila melanogaster, Assay Type: Sex-linked recessive lethal gene mutation, Assay Code: SRLT, Evaluation Type: Evaluation A (Pre-1980)) was “no conclusion”.
For `CC(=O)OC(OC(C)=O)c1ccc([N+](=O)[O-])o1`, the mutagenic call (Species/Cell Type: Escherichia coli WP2 UVRA, Assay Type: Tryptophan reverse gene mutation, Assay Code: WPU+, Evaluation Type: Evaluation A (Pre-1980)) was “active; positive”; the mutagenic call under setting [4] is “active; positive”; the mutagenic call under setting [6] was “active; positive”.
`C#CCNC(=NCCSCc1nc[nH]c1C)NC#N`: the mutagenic call under setting [8] was “inactive; negative”.
Turning to `CCCCCc1cc(O)c2c(c1)OC(C)(C)[C@@H]1CC=C(C)C[C@@H]21`, the mutagenic call runs as follows: (Species/Cell Type: Fischer rat embryo (RLV/1706) cells, Assay Type: Cell transformation, viral enhanced, Assay Code: CTR-, Evaluation Type: Evaluation A (Pre-1980)) “inactive; negative”; (Species/Cell Type: Human lymphocytes, Assay Type: Micronucleus test in vitro, chromosome aberrations, Assay Code: MN7+, Evaluation Type: Evaluation A (Pre-1980)) “active; positive”.
`Nc1ccc2ccc3ccccc3c2n1`: under setting [9], the mutagenic call was “active; positive”.
As to `Cc1ccc2ccc3cc4ccccc4cc3c2c1`, the mutagenic call by setting is: under setting [5], “active; positive”; under setting [9], “active; positive”.
As for `O=[N+]([O-])c1c2ccccc2c2ccc3cccc4ccc1c2c43`, the mutagenic call is “no conclusion” (Species/Cell Type: Chinese hamster ovary (CHO) cells, Assay Type: Forward gene mutation at the HPRT locus, Assay Code: CHOT, Evaluation Type: Evaluation B (Post-1980)) and “active; positive” under setting [9].
Turning to `c1ccc2c(c1)cc1ccc3c4ccccc4cc4ccc2c1c43`, the call under setting [1] was “active; positive”.
Take `Cc1cccc2ccc3cc4ccccc4cc3c12`: the mutagenic call reads like this: under setting [4], “active; positive”; under setting [9], “active; positive”.
Take `CC1=CC2=C(C=O)C(=O)[C@](C)(O)[C@@H](O)C2=CO1`: the mutagenic call under setting [6] was “active; positive”.
For `CSc1nc2c(c(=O)n(C)c(=O)n2C)n1C`, the mutagenic call (Species/Cell Type: Allium cepa, Assay Type: Chromosome aberrations, Assay Code: ALC+D, Dose Response: With dose response, Evaluation Type: Evaluation A (Pre-1980)) is “active; positive”.
In the case of `O=S(=O)(O)c1ccc(N=Nc2ccc(O)c3ccccc23)cc1`, the mutagenic call by setting is: (Species/Cell Type: Bacillus subtilis (H17 vs M45), Assay Type: Rec-assay, spot test, DNA effects (bacterial DNA repair), Assay Code: REWT, Evaluation Type: Evaluation A (Pre-1980)) “no conclusion”; (Species/Cell Type: Bacillus subtilis (H17 vs M45T), Assay Type: Rec-assay, spot test, DNA effects (bacterial DNA repair), Assay Code: REXT, Evaluation Type: Evaluation A (Pre-1980)) “no conclusion”; (Species/Cell Type: Salmonella typhimurium (one or more of the five standard strains: TA98, TA100, TA1535, TA1537, and TA1538), Assay Type: Histidine reverse gene mutation, Ames assay, Assay Code: SAL-, Evaluation Type: Evaluation A (Pre-1980)) “inactive; negative”.
In the case of `COc1ccc2c3c(cccc13)C(=O)c1ccccc1-2`, under setting [9], the mutagenic call is “active; positive”.
Consider `CN(C)c1ccc(C(=O)c2ccc(N(C)C)cc2)cc1`, for which the mutagenic call (Species/Cell Type: Fischer rat embryo (RLV/1706) cells, Assay Type: Cell transformation, viral enhanced, Assay Code: CTR+, Evaluation Type: Evaluation A (Pre-1980)) was “active; positive”. Besides, the call under setting [1] is “active; positive”.
As for `CC(C)(OO)c1ccccc1`, for the setting “Species/Cell Type: Saccharomyces cerevisiae, Assay Type: Mitotic recombination or gene conversion, Assay Code: YEC-, Evaluation Type: Evaluation A (Pre-1980)”, the mutagenic call is “inactive; negative”.
Consider `c1ccc2c(c1)-c1cccc3cccc-2c13`, for which the mutagenic call runs as follows: (Species/Cell Type: Chinese hamster ovary (CHO) cells, Assay Type: Forward gene mutation at the HPRT locus, Assay Code: CHO+*, Activation: With metabolic activation, Evaluation Type: Evaluation B (Post-1980)) “active; positive”; (Species/Cell Type: Fischer rat embryo (RLV/1706) cells, Assay Type: Cell transformation, viral enhanced, Assay Code: CTRT, Evaluation Type: Evaluation A (Pre-1980)) “no conclusion”; under setting [5], “active; positive”; (Species/Cell Type: Nonhuman, Assay Type: Sister-chromatid exchange (SCE) in vivo, Assay Code: SC3-, Evaluation Type: Evaluation B (Post-1980)) “inactive; negative”.
Take `O=P(O)(O)Oc1c(Br)cc(Br)cc1-c1cc(Br)cc(Br)c1O`: the mutagenic call (Species/Cell Type: Mammalian polychromatic erythrocytes, Assay Type: Micronucleus test, chromosome aberrations, Assay Code: MNTT, Evaluation Type: Evaluation B (Post-1980)) was “no conclusion”.
Consider `CC1C(c2ccccc2)OCCN1N=O` (stereo not drawn), for which the mutagenic call (Species/Cell Type: Salmonella typhimurium, Assay Type: Forward and reverse gene mutation, host-mediated assay, Assay Code: HMA-, Evaluation Type: Evaluation A (Pre-1980)) is “inactive; negative”.
On to `NC(=S)NCCNC(N)=S`, for which the mutagenic call (Species/Cell Type: Salmonella typhimurium, Assay Type: Forward and reverse gene mutation, host-mediated assay, Assay Code: HMA+, Evaluation Type: Evaluation A (Pre-1980)) is “active; positive”.
For `O=S(O)OS(=O)O`, the mutagenic call (Species/Cell Type: Escherichia coli WP2 UVRA, Assay Type: Tryptophan reverse gene mutation, Assay Code: WPU-*, Activation: With metabolic activation, Evaluation Type: Evaluation A (Pre-1980)) was “inactive; negative”.
Consider `C1CN(P2(N3CC3)=NP(N3CC3)(N3CC3)=NP(N3CC3)(N3CC3)=N2)CCO1` (stereo not drawn), for which the mutagenic call is, setting by setting: (Species/Cell Type: Human lymphocytes or leukocytes, Assay Type: Chromosome aberrations in vitro, Assay Code: CY7+, Evaluation Type: Evaluation A (Pre-1980)) “active; positive”; under setting [2], “active; positive”; under setting [3], “active; positive”; under setting [5], “active; positive”; (Species/Cell Type: Rodents, Sex: Male, Assay Type: Dominant lethal test, Assay Code: DLT+, Evaluation Type: Evaluation A (Pre-1980)) “active; positive”.
